Source: ChEMBL document CHEMBL2046382, “Synthesis, biological evaluation of 5-carbomethoxymethyl-7-hydroxy-2-pentylchromone, 5-carboethoxymethyl-4',7-dihydroxyflavone and their analogues” (Bioorg Med Chem Lett, 2012)
≈ marks a conversion by molar mass, not a printed value. Calls of active or inactive are those of the source. The rule behind the calls is not given here.

How the values were obtained:
Staphylococcus aureus [1] = test: Antibacterial activity against Staphylococcus aureus MTCC 2940 by modified microtiter broth dilution method; format: functional
Bacillus subtilis [2] = test: Antibacterial activity against Bacillus subtilis MTCC 121 at 80 ug/ml by modified microtiter broth dilution method; format: functional, organism-based
Staphylococcus aureus [3] = test: Antibacterial activity against Staphylococcus aureus MTCC 96 at 80 ug/ml by modified microtiter broth dilution method; format: functional, organism-based
Pseudomonas aeruginosa [4] = test: Antibacterial activity against Pseudomonas aeruginosa MTCC 2453 by modified microtiter broth dilution method; format: functional
Erythrocyte = test: Antioxidant activity in erythrocytes assessed as inhibition of hemolysis after 48 hrs; format: functional, cell-based
[5] = Antioxidant activity of the compound assessed as inhibition of lipid peroxidation after 48 hrs; format: functional
[6] = Chemical stability of the compound in antioxidant reaction; format: physicochemical
Escherichia coli [7] = test: Antibacterial activity against Escherichia coli MTCC 739 by modified microtiter broth dilution method; format: functional
[8] = test system: Radical scavenging activity; test: Antioxidant activity assessed as DPPH free radical scavenging activity after 48 hrs; format: functional
[9] = Antioxidant activity assessed as superoxide radical scavenging activity after 48 hrs; format: functional
Micrococcus luteus [10] = test: Antibacterial activity against Micrococcus luteus MTCC 2470 by modified microtiter broth dilution method; format: functional
Raoultella planticola [11] = test: Antibacterial activity against Klebsiella planticola MTCC 530 by modified microtiter broth dilution method; format: functional
Bacillus subtilis [12] = test: Antibacterial activity against Bacillus subtilis MTCC 121 by modified microtiter broth dilution method; format: functional
Raoultella planticola [13] = test: Antibacterial activity against Klebsiella planticola MTCC 530 at 80 ug/ml by modified microtiter broth dilution method; format: functional, organism-based
NCI60 = test: Cytotoxicity against human NCI60 cells; format: functional, cell-based
Micrococcus luteus [14] = test: Antibacterial activity against Micrococcus luteus MTCC 2470 at 80 ug/ml by modified microtiter broth dilution method; format: functional, organism-based
Pseudomonas aeruginosa [15] = test: Antibacterial activity against Pseudomonas aeruginosa MTCC 2453 at 80 ug/ml by modified microtiter broth dilution method; format: functional, organism-based
[16] = Antioxidant activity of the compound assessed as inhibition of lipid peroxidation; format: functional
[17] = test system: Radical scavenging activity; test: Antioxidant activity assessed as DPPH free radical scavenging activity; format: functional
[18] = Antioxidant activity in erythrocytes assessed as inhibition of hemolysis; format: functional, cell-based; conditions: erythrocyte
[19] = Antioxidant activity assessed as superoxide radical scavenging activity; format: functional
Staphylococcus aureus [20] = test: Antibacterial activity against Staphylococcus aureus MTCC 2940 at 80 ug/ml by modified microtiter broth dilution method; format: functional, organism-based
Staphylococcus aureus [21] = test: Antibacterial activity against Staphylococcus aureus MTCC 96 by modified microtiter broth dilution method; format: functional
Escherichia coli [22] = test: Antibacterial activity against Escherichia coli MTCC 739 at 80 ug/ml by modified microtiter broth dilution method; format: functional, organism-based

Row | SMILES | MIC (Staphylococcus aureus [1]) | Activity (Bacillus subtilis [2]) | Activity (Staphylococcus aureus [3]) | MIC (Pseudomonas aeruginosa [4]) | Activity (Erythrocyte) | Activity [5] | Stability [6] | MIC (Escherichia coli [7]) | Activity [8] | Activity [9] | MIC (Micrococcus luteus [10]) | MIC (Raoultella planticola [11]) | MIC (Bacillus subtilis [12]) | Activity (Raoultella planticola [13]) | Activity (Micrococcus luteus [14]) | Activity (Pseudomonas aeruginosa [15]) | EC50 [16] | EC50 [17] | EC50 [18] | Activity (Escherichia coli [22]) | also measured
1 | COC(=O)Cc1cc(O)cc2oc(-c3ccc([N+](=O)[O-])cc3)cc(=O)c12 | 18 µg/mL (≈ 50.7 µM) | inactive | inactive | 9 µg/mL (≈ 25.3 µM) | inactive | inactive | Unstable | 37 µg/mL (≈ 104 µM) | inactive | inactive | 18 µg/mL (≈ 50.7 µM) | 9 µg/mL (≈ 25.3 µM) | 18 µg/mL (≈ 50.7 µM) | – | – | – | – | – | – | – | –
2 | COC(=O)Cc1cc(O)cc2oc(-c3ccc(OC)c(O)c3)cc(=O)c12 | 37 µg/mL (≈ 104 µM) | inactive | inactive | 9 µg/mL (≈ 25.3 µM) | inactive | inactive | Unstable | 18 µg/mL (≈ 50.5 µM) | inactive | inactive | – | – | – | inactive | inactive | – | – | – | – | – | Activity (NCI60): inactive
3 | CCOC(=O)Cc1cc(O)cc2oc(-c3ccc(O)cc3)cc(=O)c12 | – | – | inactive | – | – | – | – | 9 µg/mL (≈ 26.4 µM) | – | – | 9 µg/mL (≈ 26.4 µM) | 9 µg/mL (≈ 26.4 µM) | 9 µg/mL (≈ 26.4 µM) | – | – | inactive | 171.54 µg/mL (≈ 504 µM) | 71.11 µg/mL (≈ 209 µM) | 151.1 µg/mL (≈ 444 µM) | – | EC50 [19]: 77.71 µg/mL (≈ 228 µM); Activity (Staphylococcus aureus [20]): inactive
4 | COC(=O)Cc1cc(O)cc2oc(-c3cc(OC)cc(OC)c3)cc(=O)c12 | 18 µg/mL (≈ 48.6 µM) | – | – | 9 µg/mL (≈ 24.3 µM) | inactive | inactive | Unstable | 4 µg/mL (≈ 10.8 µM) | inactive | inactive | 9 µg/mL (≈ 24.3 µM) | 18 µg/mL (≈ 48.6 µM) | 18 µg/mL (≈ 48.6 µM) | – | – | – | – | – | – | – | Activity (NCI60): inactive; MIC (Staphylococcus aureus [21]): 9 µg/mL (≈ 24.3 µM)
5 | O=C1O[C@H]([C@@H](O)CO)C(O)=C1O [ASCORBIC ACID] | – | – | – | – | – | – | – | – | – | – | – | – | – | – | – | – | 139.97 µg/mL (≈ 795 µM) | 40.28 µg/mL (≈ 229 µM) | 119.87 µg/mL (≈ 681 µM) | – | EC50 [19]: 21.01 µg/mL (≈ 119 µM)
6 | COC(=O)Cc1cc(O)cc2oc(-c3ccccc3)cc(=O)c12 | 9 µg/mL (≈ 29 µM) | inactive | inactive | – | inactive | inactive | Unstable | – | inactive | inactive | – | – | – | inactive | inactive | inactive | – | – | – | inactive | –
7 | COC(=O)Cc1cc(O)cc2oc(-c3cc(OC)c(OC)c(OC)c3)cc(=O)c12 | 18 µg/mL (≈ 45 µM) | – | – | 18 µg/mL (≈ 45 µM) | inactive | inactive | Unstable | 18 µg/mL (≈ 45 µM) | inactive | inactive | 4 µg/mL (≈ 9.99 µM) | 9 µg/mL (≈ 22.5 µM) | 9 µg/mL (≈ 22.5 µM) | – | – | – | – | – | – | – | MIC (Staphylococcus aureus [21]): 18 µg/mL (≈ 45 µM)
8 | COC(=O)Cc1cc(O)cc2oc(-c3ccc(C)cc3)cc(=O)c12 | 18 µg/mL (≈ 55.5 µM) | – | – | 9 µg/mL (≈ 27.7 µM) | inactive | inactive | Unstable | 4 µg/mL (≈ 12.3 µM) | inactive | inactive | 18 µg/mL (≈ 55.5 µM) | 18 µg/mL (≈ 55.5 µM) | 4 µg/mL (≈ 12.3 µM) | – | – | – | – | – | – | – | Activity (NCI60): inactive; MIC (Staphylococcus aureus [21]): 9 µg/mL (≈ 27.7 µM)
9 | COC(=O)Cc1cc(O)cc2oc(-c3cccc(OC)c3Cl)cc(=O)c12 | – | inactive | – | – | inactive | inactive | Unstable | – | inactive | inactive | – | – | – | inactive | inactive | inactive | – | – | – | inactive | MIC (Staphylococcus aureus [21]): 9 µg/mL (≈ 24 µM); Activity (Staphylococcus aureus [20]): inactive
10 | O=c1cc(-c2ccc(O)c(O)c2)oc2cc(O)cc(O)c12 [LUTEOLIN] | 18 µg/mL (≈ 62.9 µM) | inactive | – | – | – | – | – | 4 µg/mL (≈ 14 µM) | – | – | 18 µg/mL (≈ 62.9 µM) | – | – | inactive | – | inactive | 134.1 µg/mL (≈ 468 µM) | 44.18 µg/mL (≈ 154 µM) | 122 µg/mL (≈ 426 µM) | – | EC50 [19]: 31.01 µg/mL (≈ 108 µM); MIC (Staphylococcus aureus [21]): 9 µg/mL (≈ 31.4 µM)
11 | COC(=O)Cc1cc(O)cc2oc(-c3ccc(O)c(O)c3)cc(=O)c12 | 9 µg/mL (≈ 26.3 µM) | inactive | inactive | 9 µg/mL (≈ 26.3 µM) | – | – | – | – | – | – | – | – | – | inactive | inactive | – | 142 µg/mL (≈ 415 µM) | 49.99 µg/mL (≈ 146 µM) | 127.98 µg/mL (≈ 374 µM) | inactive | EC50 [19]: 44.08 µg/mL (≈ 129 µM)
12 | COC(=O)Cc1cc(O)cc2occc(=O)c12 | – | – | inactive | – | inactive | inactive | Unstable | – | inactive | inactive | – | – | – | inactive | inactive | inactive | – | – | – | inactive | Activity (Staphylococcus aureus [20]): inactive
13 | COC(=O)Cc1cc(O)cc2oc(-c3ccc(Cl)cc3)cc(=O)c12 | 75 µg/mL (≈ 218 µM) | inactive | – | 37 µg/mL (≈ 107 µM) | inactive | inactive | Unstable | – | inactive | inactive | – | – | – | inactive | inactive | – | – | – | – | inactive | MIC (Staphylococcus aureus [21]): 37 µg/mL (≈ 107 µM)
14 | COC(=O)Cc1cc(O)cc2oc(-c3ccc(OC)cc3)cc(=O)c12 | – | – | inactive | 37 µg/mL (≈ 109 µM) | inactive | inactive | Unstable | 18 µg/mL (≈ 52.9 µM) | inactive | inactive | – | – | 9 µg/mL (≈ 26.4 µM) | inactive | inactive | – | – | – | – | – | Activity (NCI60): inactive; Activity (Staphylococcus aureus [20]): inactive
15 | COC(=O)Cc1cc(O)cc2oc(-c3cc(O)c(O)c(O)c3)cc(=O)c12 | 9 µg/mL (≈ 25.1 µM) | inactive | inactive | – | – | – | – | – | – | – | – | 9 µg/mL (≈ 25.1 µM) | – | – | inactive | inactive | 156.21 µg/mL (≈ 436 µM) | 55.08 µg/mL (≈ 154 µM) | 139.76 µg/mL (≈ 390 µM) | inactive | EC50 [19]: 50.09 µg/mL (≈ 140 µM)
16 | COC(=O)Cc1cc(O)cc2oc(-c3ccc(O)cc3O)cc(=O)c12 | – | inactive | inactive | 9 µg/mL (≈ 26.3 µM) | – | – | – | – | – | – | – | – | – | inactive | inactive | – | Not Active | 60 µg/mL (≈ 175 µM) | Not Active | inactive | EC50 [19]: 60.9 µg/mL (≈ 178 µM); Activity (Staphylococcus aureus [20]): inactive
17 | COC(=O)Cc1cc(O)cc2oc(-c3ccc(O)c(OC)c3)cc(=O)c12 | 18 µg/mL (≈ 50.5 µM) | – | – | 9 µg/mL (≈ 25.3 µM) | inactive | inactive | Unstable | 4 µg/mL (≈ 11.2 µM) | inactive | inactive | 18 µg/mL (≈ 50.5 µM) | 9 µg/mL (≈ 25.3 µM) | 4 µg/mL (≈ 11.2 µM) | – | – | – | – | – | – | – | Activity (NCI60): inactive; MIC (Staphylococcus aureus [21]): 9 µg/mL (≈ 25.3 µM)
18 | COC(=O)Cc1cc(O)cc2oc(-c3ccc(N)cc3)cc(=O)c12 | – | – | inactive | – | inactive | inactive | Unstable | – | inactive | inactive | – | – | 9 µg/mL (≈ 27.7 µM) | inactive | inactive | inactive | – | – | – | inactive | Activity (NCI60): inactive; Activity (Staphylococcus aureus [20]): inactive
19 | COC(=O)Cc1cc(O)cc2oc(-c3cc(O)ccc3O)cc(=O)c12 | – | inactive | inactive | 18 µg/mL (≈ 52.6 µM) | inactive | inactive | Unstable | 18 µg/mL (≈ 52.6 µM) | inactive | inactive | 37 µg/mL (≈ 108 µM) | – | – | inactive | – | – | 221.12 µg/mL (≈ 646 µM) | 119.11 µg/mL (≈ 348 µM) | 209.56 µg/mL (≈ 612 µM) | – | EC50 [19]: 106.22 µg/mL (≈ 310 µM); Activity (Staphylococcus aureus [20]): inactive
20 | CCCCCc1cc(=O)c2c(CC(=O)OC)cc(O)cc2o1 [PESTALOTIOPSONE F] | 9 µg/mL (≈ 29.6 µM) | inactive | inactive | – | inactive | inactive | Unstable | – | inactive | inactive | – | 9 µg/mL (≈ 29.6 µM) | – | – | inactive | inactive | – | – | – | inactive | –
